Tests used:
[1] = target: T1, Carboxypeptidase B2 (Homo sapiens, UniProt Q96IY4)
T1 sequence (Q96IY4 whole entry): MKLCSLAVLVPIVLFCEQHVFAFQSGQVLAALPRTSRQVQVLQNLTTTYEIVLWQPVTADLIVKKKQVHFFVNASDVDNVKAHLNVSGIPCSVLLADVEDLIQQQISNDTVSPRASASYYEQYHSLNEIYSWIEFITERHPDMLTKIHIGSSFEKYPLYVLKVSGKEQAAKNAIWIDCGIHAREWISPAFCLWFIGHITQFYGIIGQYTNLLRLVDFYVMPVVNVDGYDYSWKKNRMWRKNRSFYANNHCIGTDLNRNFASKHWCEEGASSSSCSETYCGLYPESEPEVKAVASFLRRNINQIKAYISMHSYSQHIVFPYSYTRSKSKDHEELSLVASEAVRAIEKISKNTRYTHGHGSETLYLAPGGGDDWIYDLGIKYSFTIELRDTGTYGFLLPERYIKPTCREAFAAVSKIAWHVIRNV
Description: Inhibition of activated human plasma TAFI incubated for 15 mins by chromogenic assay

[2] = Drug excretion in Sprague-Dawley rat urine at 1 mg/kg, iv administered as bolus dose after 24 hrs; format: ADME, organism-based; conditions: read-out: Drug excretion
[3] = Initial plasma concentration in Sprague-Dawley rat at 1 mg/kg, iv administered as bolus dose measured up to 4 hrs; format: ADME, organism-based
[4] = Clearance in Sprague-Dawley rat at 1 mg/kg, iv administered as bolus dose measured up to 24 hrs; format: ADME, organism-based; conditions: in vivo
[5] = Volume distribution at steady state in Sprague-Dawley rat at 1 mg/kg, iv administered as bolus dose measured up to 24 hrs; format: ADME, organism-based; conditions: in vivo, read-out: Vdss
[6] = Terminal half life in Sprague-Dawley rat at 1 mg/kg, iv administered as bolus dose measured up to 24 hrs; format: ADME, organism-based; conditions: in vivo, read-out: beta t1/2 (converted)

Structure (SMILES)	IC50 [1] [µM]	other results
CC1(C)[C@@H]2CC[C@@]1(C)[C@@H](NC(=O)[C@H](CC1CCCCC1)NS(=O)(=O)N[C@@H](CCCCO)C(=O)O)C2	> 30	
CC1(C)[C@@H]2CC[C@@]1(C)[C@@H](NC(=O)[C@H](CC1CCCCC1)NS(=O)(=O)N[C@@H](CCCC(N)=O)C(=O)O)C2	> 30	
CC(=O)NCCCC[C@H](NS(=O)(=O)N[C@@H](CC1CCCCC1)C(=O)N[C@H]1C[C@H]2CC[C@]1(C)C2(C)C)C(=O)O	> 30	
CC1(C)[C@@H]2CC[C@@]1(C)[C@@H](NC(=O)[C@H](CC1CCCCC1)NS(=O)(=O)N[C@@H](CCCCN)C(=O)O)C2		dose excreted at 24 h [2]: 4%; C0 at 4 h [3]: 3800 ng/mL; clearance [4]: 11.7 mL/min/kg; Vd [5]: 0.38 L/kg; half-life [6]: 1.7 h
CC(C)[C@H](NS(=O)(=O)N[C@@H](CCCCN)C(=O)O)C(=O)NC12CC3CC(CC(C3)C1)C2	> 30	

Second part, led by results:

IC50 [1] [µM]	Structure (SMILES)	other results
> 30	CC1(C)[C@@H]2CC[C@@]1(C)[C@@H](NC(=O)[C@H](CC1CCCCC1)NS(=O)(=O)N[C@@H](CCCCNC(N)=O)C(=O)O)C2	
6.7	CC(C)(C)NC(=O)[C@H](CC1CCCCC1)NS(=O)(=O)N[C@@H](CCCCN)C(=O)O	
15	NCCCC[C@H](NS(N)(=O)=O)C(=O)O	
0.003	CC1(C)C2CCC1(C)[C@@H](NC(=O)[C@H](CC1CCCCC1)NC(=O)N[C@@H](CCCCN)C(=O)O)C2 (stereo partly drawn)	
